Source: patent US10821164B2, “Peptides for inducing Chagas disease responses” (SAINT LOUIS UNIVERSITY, priority 2015, dated 2020)

Columns and labels:
[1] = test system: T. cruzi; settings: children aged six to 12 years with chronic disease; cited from earlier work
[2] = test system: CD8^+ T cells; assay: IFN-γ ELISPOT after vaccination of HLA-A2 transgenic mice with peptide-pulsed mature dendritic cells; type: cell-based, HLA-A2 HHDII transgenic mice; settings: splenic CD8+ T cells four weeks after second peptide-pool pulsed mDC vaccination; stimulated overnight with spleen cells pulsed with individual peptide 5 μg/ml; FIG. 2A
Text: FIGS. 2A-C—Immunogenicity of predicted HLA-A2 restricted T. cruzi epitopes. HLA-A2 transgenic mice were vaccinated twice, two weeks apart with mature dendritic cells pulsed with functional TS (F-TS; FIG. 2A), Non-functional TS (NF-TS; FIG. 2B), or whole genome derived Non-TS peptide pools (FIG. 2C). One month later, CD8^+ T cells were isolated from control DC or peptide-pool pulsed DC vaccinated mice and stimulated overnight with APCs pulsed with individual F-TS, NF-TS, or Non-TS peptides in IFN-γ ELISPOT assays. Shown are mean±SE from representative experiments expressed as IFN-γ spot forming cells (SFC) per million CD8^+ T cells above DMSO control. Asterisks denote immunogenic peptides defined as responses greater than the mean+2 SE of all control CD8^+ T cell responses.
All animal studies were conducted in AAALAC accredited facilities and were approved by the Saint Louis University Institutional Animal Care and Use Committee. HLA-A2 HHDII transgenic mice were provided by Ted Hansen (Washington University) with permission from Marion Berard at the Institut Pasteur and were bred and housed under pathogen-free conditions throughout the inventors' studies (Pascolo et al., 1997). […]

Compound	cure rate [1]	IFN-γ spot forming cells (SFC) per million CD8^+ T cells above DMSO control [2]
O=C(Cn1ccnc1[N+](=O)[O-])NCc1ccccc1 [benznidazole]	about 60%	–
EVYSLVFARL [F-TS-2]	–	5,000 IFN-γ SFC/million CD8^+ T cells
